The results in this text go back to EP2332528A1, “Substituted aromatic dicarbonic acid amides as medicaments” (Grünenthal GmbH, priority 2009, dated 2011).

This assay relates to vGLUT1- bzw. vGLUT2-Transporter. Put plainly: Glutamate uptake in rat crude synaptic vesicles ([3H]-glutamate uptake). The format is biochemical, Ratte. The settings on record: for IC50: read-out: VGLUT (Ratte), IC50; for VGLUT (Ratte), Hemmung [%]: test concentration not given. The source says:
I. Funktionelle Untersuchung an den vGLUT1- bzw. vGLUT2-Transportern
Die agonistische bzw. antagonistische Wirkung der zu untersuchenden Verbindungen am vGLUT1- bzw. vGLUT2-Transporter der Spezies Ratte kann mit folgendem Assay bestimmt werden.
Glutamat-Uptake in Rattenvesikel ('rat crude synaptic vesicles')
Die Präparation von Vesikeln wurde aus Rattengehirn-Homogenaten (männlichen Ratten, Stamm Wistar SPF, 150-250 g Gewicht) durchgeführt gemäß Roseth et al. (1995) J. Neurochem. 65: 96-103, der sich auf Whittaker et al. (1964) Biochem J. 90, 293-303 und Fykse und Fonnum (1988) J. Neurochem. 50: 1237-1242 bezieht.
Hierzu wurden frisch entnommene Rattengehirne in 0,32 M Saccharose, 10 mM TRIS-maleat, 1 mM EGTA, pH 7,4 (10 ml/g Frischgewicht) mit einem Potter-Homogenisator (Fa. Braun/Melsungen; 5 Kolbenhübe bei 800 Upm) unter Eiskühlung homogenisiert und anschließend für 10 Minuten bei 3.000 g und 4°C zentrifugiert. Der resultierende Überstand wurde bei 20.000 g für 30 Minuten bei 4°C zentrifugiert. Das entstandene Pellet wurde dann im Verhältnis 1:3 mit 10 mM TRIS-maleate, 0,1 mM EGTA, pH 7,4 osmotisch geschockt und die Suspension bei 17000g für 30 min (4°C) zentrifugiert. Die im Überstand verbliebenen Vesikel wurden nun auf einen Dichtegradienten aus 0,6 M Saccharose in 10 mM TRIS-maleat, 1 mM EGTA, pH 7.4 und 0.4 M Saccharose in 10 mM TRIS-maleat, 1 mM EGTA, pH 7.4 geschichtet. Eine Ultrazentrifugation der Gradienten im Ausschwingrotor bei 65000g für 2h (4°C) schloss sich an. Die Vesikel-Fraktion wurde von der 0.4 M Saccharose-Bande isoliert und im Uptake-Versuch eingesetzt.
Die Substratlösung für den Uptake von [^3H]-Glutamat bestand aus ATP (neutralisiert mit Trisma base; 2 mM im Endansatz), Glutamat (0.5 mM im Endansatz) und ^3H-Glutamat (0.5 µCi im Endansatz). In 14 ml-Reagiergefäßen (Sarstedt, Artikel-Nr.: 798438) wurden jeweils 0,3 ml Gesamtvolumina (n=2/Probe) pipettiert in der folgenden Reihenfolge: 1.) 165 µl Inkubationspuffer (110 mM Kaliumtartrat, 10 mM TRIS-maleat, pH 7,4, 4 mM MgCl2), 2.) 10 µl Testsubstanz oder Vehikelkontrolle oder blank, 3.) 100 µl synaptische Vesikel. Es schloss sich eine Vorinkubation von 15 min bei 30°C an (nur blank-Ansätze befanden sich hierbei auf Eis). Danach wurde der Uptake durch Zugabe von 25 µl der oben beschriebenen Substratlösung gestartet. Die Reaktion wurde nach 5 min durch Zugabe von 7,0 ml eiskalter 150 mM KCI gestoppt. Anschließend wurden die Proben mit Hilfe des Brandel Cell Harvesters Typ M-24R über einen Membranfilter der Porengröße 0,8 µm abgesaugt und zweimal mit eiskalter 150 mM KCI nachgewaschen. Die Messung erfolgte am beta-Counter nach 15 h in 10 ml Szintillatorflüssigkeit (Filter Count).
Die Affinität der Verbindungen der allgemeinen Formel (I) für den vGLUT1- bzw. vGLUT2-Transporter wurde wie vorstehend beschrieben bestimmt (Pharmakologische Methoden).

What is called IC50 is the midpoint of a concentration-inhibition curve. In the case of `O=C(Nc1ccccc1C(=O)O)c1ccc(Oc2ccc(C(=O)Nc3ccccc3C(=O)O)cc2)cc1` [Beispiel 3, 2-(4-(4-(2-Carboxyphenylcarbamoyl)phenoxy)benzamido)-benzoesäure], the 50% inhibitory concentration (IC50) was found to be 2.26 µM and the “VGLUT (Ratte), Hemmung [%]” value was 88%.
The corresponding values for `O=C(Nc1ccccc1C(=O)O)c1cccc(C(=O)Nc2ccccc2C(=O)O)c1` [Beispiel 2, 2-(3-(2-Carboxyphenylcarbamoyl)benzamido)benzoesäure] are 3.35 µM and 78%.
`O=C(Nc1ccccc1C(=O)O)c1ccc(C(=O)Nc2ccccc2C(=O)O)cc1` [Beispiel 1, 2-(4-(2-Carboxyphenylcarbamoyl)benzamido)benzoesäure]: the IC50 was 1.29 µM and the “VGLUT (Ratte), Hemmung [%]” value came to 91%.
For `O=C(Nc1cc([N+](=O)[O-])ccc1C(=O)O)c1ccc(C(=O)Nc2cc([N+](=O)[O-])ccc2C(=O)O)cc1` [Beispiel 5, 2-(4-(2-Carboxy-5-nitrophenylcarbamoyl)benzamido)-4-nitrobenzoesäure] the same measures were 0.86 µM and 88%.
Turning to `O=C(Nc1cc([N+](=O)[O-])ccc1C(=O)O)c1cccc(C(=O)Nc2cc([N+](=O)[O-])ccc2C(=O)O)c1` [Beispiel 4, 2-(3-(2-Carboxy-5-nitrophenylcarbamoyl)benzamido)-4-nitrobenzoesäure], the IC50 was found to be 0.32 µM and the “VGLUT (Ratte), Hemmung [%]” value turned out to be 92%.
